What all share (assay): growth of human tumour cells (NCI), 48 h
For experiment [1], the system named is SF-295.
The subject of experiment [2] is MOLT-4.
Experiment [3] relates to IGROV-1.
Experiment [4] concerns T47D.
Experiment [5] has as its system TK-10.
The test system of experiment [6] is NCI-H460.
Experiment [7] deals with UACC-62.
Experiment [8] concerns NCI/ADR-RES.
In experiment [9] the test system is HT-29.
In experiment [10] the test system is HCT-15.
Experiment [11] relates to ACHN.
Experiment [12] has as its system HCT-116.
The test system of experiment [13] is OVCAR-5.
The subject of experiment [14] is Hs-578T.
Experiment [15] has as its system SK-OV-3.
Experiment [16] concerns EKVX.
Experiment [17] deals with RPMI-8226.
Experiment [18] deals with OVCAR-3.
Experiment [19] concerns NCI-H23.
Experiment [20] concerns A498.

SMILES strings stand for the structures.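 Exposure lasted 48 hours, with cells grown in 96-well plates and compounds tested at five concentrations. The concentration for 50% growth inhibition is given as GI50.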 Activity calls are given as the source filed them. No stated cut-off is given here; in the data, active = GI50 up to about 1.1 µM and inactive = higher.

For the molecule `CCN1/C(=C/C#C/C(C)=C\c2sc3ccccc3[n+]2CC)Sc2ccccc21`, the GI50 in experiment [1] is 2.94 µM (inactive); in [2] it was 24.4 µM (inactive); in [3], 1.75 µM (inactive); in experiment [4], 5.13 µM (inactive); in [5] it was 3.24 µM (inactive); in experiment [6], 2.53 µM (inactive). In addition, the GI50 in [7] is 2.55 µM (inactive); in experiment [8], 3.53 µM (inactive); in experiment [9] it was 1.35 µM (inactive); in [10], 3.69 µM; in experiment [11], 1.16 µM (inactive); in experiment [12], 0.738 µM (active). Also, the GI50 is 3.44 µM (inactive) in experiment [13]; 2.98 µM (inactive) in experiment [14]; 10.6 µM (inactive) in [15]; 1.33 µM (inactive) in [16]; 0.222 µM (active) in experiment [17].
With `N/C(=N\O)N/N=C/c1cc(I)cc(I)c1O`, the GI50 was 50.4 µM (inactive) in experiment [1]; > 100 µM (inactive) in experiment [2]; 30.8 µM (inactive) in experiment [3]; 48.1 µM (inactive) in experiment [4]; 2.2 µM (inactive) in [18]; 57.7 µM (inactive) in [5]. Besides, the GI50 in [6] was 35.2 µM (inactive); in [7], 31.9 µM (inactive); in experiment [8], 2.8 µM (inactive); in experiment [9], 46.7 µM (inactive); in experiment [10], 5.37 µM; in experiment [11], 24.1 µM (inactive). The GI50 in experiment [19] is 28 µM (inactive); in experiment [12], 23.7 µM (inactive); in [13] it was 79.1 µM (inactive); in experiment [20], > 100 µM (inactive); in [14], > 100 µM (inactive); in [15], 75.5 µM (inactive). For the same molecule, the GI50 in experiment [16] is 58.3 µM (inactive).
In the case of `CC12CCC(C/C1=N\NC(N)=O)C2(C)C` (stereo unspecified), the GI50 in [1], in experiment [2], in experiment [3], in experiment [4], in experiment [18] and in experiment [5] was > 100 µM (inactive) each time. The GI50 in [6] was > 100 µM (inactive); in experiment [7], > 100 µM (inactive); in experiment [8], > 100 µM (inactive); in experiment [9] it was > 100 µM (inactive); in experiment [10], above 100 µM; in experiment [11], > 100 µM (inactive). The GI50 in experiment [19], in experiment [12], in experiment [13], in [14], in experiment [15] and in [16] was > 100 µM (inactive) throughout. For the same molecule, the GI50 in experiment [17] was > 100 µM (inactive).
In the case of `Oc1cc2c(cc1C(c1ccc3c(c1)OCO3)N1CCN(C(c3ccc4c(c3)OCO4)c3cc4c(cc3O)OCO4)CC1)OCO2` (stereo unspecified), the GI50 in [1] was 16.7 µM (inactive); in experiment [2], 7.08 µM (inactive); in experiment [3] it was 16.9 µM (inactive); in experiment [4], 17.2 µM (inactive); in experiment [18], 17.1 µM (inactive); in experiment [5] it was 20.2 µM (inactive). Moreover, the GI50 is 38.6 µM (inactive) in experiment [6]; 14.4 µM (inactive) in [7]; 19.2 µM (inactive) in experiment [8]; 5.26 µM (inactive) in experiment [9]; 7.98 µM in [10]; 13.7 µM (inactive) in experiment [11]. Further, the GI50 was 16.9 µM (inactive) in experiment [19]; 15.7 µM (inactive) in experiment [12]; 18.2 µM (inactive) in experiment [13]; 11.9 µM (inactive) in experiment [14]; 27 µM (inactive) in [15]; 35.2 µM (inactive) in [16].
For `CC1(C)OC(=O)C(Cc2ccccc2)(Cc2ccccc2)C(=O)O1`, the GI50 in [1], in [2], in [3], in experiment [4], in [5] and in [6] was > 100 µM (inactive) in each case. For the same molecule, the GI50 in experiment [7] was > 100 µM (inactive); in experiment [8] it was > 100 µM (inactive); in experiment [9], > 100 µM (inactive); in experiment [10], above 100 µM; in experiment [11] it was > 100 µM (inactive); in experiment [19], > 100 µM (inactive). The GI50 in experiment [12], in experiment [13], in experiment [14], in experiment [15] and in experiment [16] was > 100 µM (inactive) each time.
As for `Cn1c(=O)c2nc[nH]c2n(C)c1=O` [THEOPHYLLINE], the GI50 in [2], in experiment [3], in experiment [4], in experiment [18], in [5] and in experiment [6] was > 100 µM (inactive) in each case. For the same molecule, the GI50 in experiment [8] was > 100 µM (inactive); in experiment [10], above 100 µM; in experiment [11], > 100 µM (inactive); in experiment [19], > 100 µM (inactive); in experiment [12], > 100 µM (inactive); in experiment [13], > 100 µM (inactive). In addition, the GI50 in experiment [14], in experiment [16] and in [17] was > 100 µM (inactive) each time.
Turning to `Cc1c2c3ccccc3nc-2n(C)c2ccccc12`, the GI50 is 3.7 µM (inactive) in experiment [1]; 0.339 µM (active) in [2]; 2.32 µM (inactive) in [3]; 3.08 µM (inactive) in [4]; 1.77 µM (inactive) in experiment [18]; 1.94 µM (inactive) in experiment [5]. The GI50 in [6] was 0.396 µM (active); in [7], 1.7 µM (inactive); in experiment [8], 2.01 µM (inactive); in experiment [9], 1.34 µM (inactive); in experiment [10], 0.548 µM; in [11], 0.611 µM (active). In addition, the GI50 is 2.5 µM (inactive) in experiment [19]; 0.495 µM (active) in [12]; 2.61 µM (inactive) in experiment [13]; 4.8 µM (inactive) in experiment [14]; 1.25 µM (inactive) in [15]; 2.43 µM (inactive) in experiment [16]. For the same molecule, the GI50 in [17] was 2.7 µM (inactive).
Regarding `CC1(C)CC(=O)C(Cc2ccccc2)(Cc2ccccc2)C(=O)C1`, the GI50 in experiment [1], in experiment [2], in [3], in experiment [4], in [5] and in experiment [6] was > 100 µM (inactive) each time. Besides, the GI50 is > 100 µM (inactive) in experiment [7]; > 100 µM (inactive) in experiment [8]; > 100 µM (inactive) in experiment [9]; above 100 µM in experiment [10]; > 100 µM (inactive) in experiment [11]; > 100 µM (inactive) in [19]. Also, the GI50 is > 100 µM (inactive) in experiment [12]; > 100 µM (inactive) in experiment [13]; 29.2 µM (inactive) in [14]; > 100 µM (inactive) in experiment [15]; > 100 µM (inactive) in experiment [16].
Consider `C[C@]12CCC(=O)C=C1CC[C@@H]1C2CC[C@]2(C)Nc3c(ncn3-c3ccc(F)cc3)CC12` (stereo partly specified), for which the GI50 was 15.3 µM (inactive) in [1]; 23.3 µM (inactive) in experiment [2]; 52.4 µM (inactive) in [3]; 18.3 µM (inactive) in [4]; 29.2 µM (inactive) in experiment [18]; 27.7 µM (inactive) in experiment [5]. For the same molecule, the GI50 in experiment [6] was 21.7 µM (inactive); in experiment [7], 16.1 µM (inactive); in [9], 18.9 µM (inactive); in experiment [11], 20.8 µM (inactive); in experiment [19], 23.1 µM (inactive); in experiment [12], 15 µM (inactive). The GI50 in [13] was 40.7 µM (inactive); in [20], 22.3 µM (inactive); in experiment [14], 16.3 µM (inactive); in experiment [15], 39.3 µM (inactive); in experiment [16], 27.3 µM (inactive).
As for `COC(=O)[C@H]1COC(=O)N1`, the GI50 in experiment [1], in experiment [2], in experiment [3], in experiment [4], in experiment [18] and in [5] was > 100 µM (inactive) in each case. Besides, the GI50 in experiment [6] was > 100 µM (inactive); in experiment [7], > 100 µM (inactive); in experiment [8] it was > 100 µM (inactive); in experiment [9] it was > 100 µM (inactive); in experiment [10], above 100 µM; in experiment [11], > 100 µM (inactive). Further, the GI50 in experiment [19], in [12], in experiment [13], in experiment [20], in [14] and in experiment [15] was > 100 µM (inactive) throughout. In addition, the GI50 in experiment [16] was > 100 µM (inactive).
For the molecule `CN(c1ccccc1Cl)S(=O)(=O)c1ccccc1[N+](=O)[O-]`, the GI50 in [1] is 71.4 µM (inactive); in experiment [2], 25.7 µM (inactive); in [3], 70.1 µM (inactive); in experiment [4], 90.6 µM (inactive); in experiment [18], 37.8 µM (inactive); in experiment [5] it was 82 µM (inactive). Also, the GI50 in experiment [6] is 33.9 µM (inactive); in experiment [7] it was 27.1 µM (inactive); in [8] it was 27.9 µM (inactive); in experiment [9], 34.3 µM (inactive); in experiment [10], 48.9 µM; in experiment [11], > 10 µM (inactive). Also, the GI50 is 35.2 µM (inactive) in experiment [19]; 33.6 µM (inactive) in [12]; 30.6 µM (inactive) in experiment [13]; > 100 µM (inactive) in experiment [14]; 51.5 µM (inactive) in experiment [15]; 39.2 µM (inactive) in experiment [16]. For the same molecule, in [17], the GI50 was 24.8 µM (inactive).

For the origin of these results see ChEMBL document CHEMBL1201862, “PubChem BioAssay data set” (2004).
